# Patent publication US6046218A, “Pyridine derivative and medicament containing the same as an effective ingredient” (SS Pharmaceutical Co., Ltd., priority 1996, dated 2000)
# Structures can show the parent of a compound that is named as a salt.
# Columns and labels:
# [1] = tested on: IgE production; assay: Test 4: inhibition of IgE production by spleen cells of orally treated sensitized mice; type: in vivo, Balb/c mouse; details: Mus musculus, po, 100 mg/kg orally once a day, Day 1 to Day 10, DNP-BSA 5 μg/ml, 24 hours, read-out: Inhibition rate of IgE production
# Description: (§1) Test 4: Test on the inhibition of IgE production
# (§2) To a Balb/c mouse, the DNP-labeled ascaris antigen (5 μg) and Alum (1 mg) were intraperitoneally administered on Day 1 and Day 6 to sensitize the mouse with the antibody. From Day 1 to Day 10, a medicament was orally administered at a dose of 100 mg/kg once a day. On Day 11, the mouse was subjected to splenectomy and the spleen so obtained was untangled into its cells. To 5×10^7 cells/ml of the spleen cells so obtained, DNP-BSA (5 μg/ml) was added, followed by incubation at 37° C. for 24 hours. After incubation, 100 μl of the supernatant were collected and subjected to the measurement an IgE measuring kit (Yamasa Co., Ltd.). In order to determine IgG1, IgG2a and IgM, the absorbance of the incubated supernatant was measured by the EIA method and provided for comparison. The inhibition rate of IgE production was calculated according to the below-described formula. Inhibition rates of the IgG1, IgG2a and IgM production were similarly calculated, respectively. [formula]
# [2] = tested on: IgM production; assay: Test 4 (comparison): inhibition of IgM production; type: in vivo, Balb/c mouse; details: 100 mg/kg orally once a day; for inhibition at 100 mg/kg: Mus musculus, po, Day 1 to Day 10, spleen cells, DNP-BSA 5 μg/ml, 24 hours, read-out: Inhibition rate of IgM production
# Description: as §1, §2
# [3] = tested on: IgG2a production; assay: Test 4 (comparison): inhibition of IgG2a production; type: in vivo, Balb/c mouse; details: 100 mg/kg orally once a day; for inhibition at 100 mg/kg: Mus musculus, po, Day 1 to Day 10, spleen cells, DNP-BSA 5 μg/ml, 24 hours, read-out: Inhibition rate of IgG2a production
# Description: as §1, §2
# [4] = tested on: IgG1 production; assay: Test 4 (comparison): inhibition of IgG1 production; type: in vivo, Balb/c mouse; details: 100 mg/kg orally once a day; for inhibition at 100 mg/kg: Mus musculus, po, Day 1 to Day 10, spleen cells, DNP-BSA 5 μg/ml, 24 hours, read-out: Inhibition rate of IgG1 production
# Description: as §1, §2
# [5] = tested on: IL-5 production; assay: Test 3: inhibition of IL-5 production in human PBMC stimulated with ConA; type: cell-based; details: 10^-6 M, 10 μg/ml ConA, 48 hours, read-out: Inhibition rate of IL-5 production
# Summary of the method: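 Human PBMC from a normal volunteer, 1×10^6 cells/ml in AIM-V, stimulated with 10 μg/ml ConA alongside compound and incubated 48 h at 37 °C, 5% CO2. Supernatant IL-5 quantified by EIA; inhibition rate calculated from a formula.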
# [6] = tested on: IL-4 production; assay: Test 1: inhibition of IL-4 production in human T-cell strain ATL-16T(-) stimulated with PMA (R&D Systems EIA); type: cell-based; details: ATL-16T(-) 1×10^6 cells/0.5 ml/well, 20 nM PMA, 48 hours, read-out: Inhibition rate of IL-4 production; for inhibition at 10 µM: 10^-5 M; for inhibition at 1 µM: 10^-6 M; for inhibition at 0.1 µM: 10^-7 M; for inhibition at 0.01 µM: 10^-8 M
# Description: Test 1: Test on the inhibition of IL-4 production
# (§3) Into individual wells of a 48-well microplate, the human T-cell strain ATL-16T(-) was poured at a concentration of 1×10^6 cells/0.5 ml/well (n=3), followed by the addition of a stimulator (20 nM of PMA) and a medicament at the same time. The resulting mixture was incubated in 5% CO2 at 37° C. for 48 hours. After incubation, 100 μl of the supernatant were collected and subjected to measurement by a human IL-4 EIA kit (R&D SYSTEMS, INC.). The inhibition rate was calculated according to the following formula. [formula]
# [7] = tested on: IL-4 production; assay: Test 2: inhibition of IL-4 production in human T-cell strain ATL-16T(-) stimulated with PMA (Bio Source EIA); type: cell-based; details: ATL-16T(-) 5×10^5 cells/0.5 ml/well, 20 nM PMA, 48 hours, read-out: Inhibition rate of IL-4 production; for inhibition at 10 µM: 10^-5 M; for inhibition at 1 µM: 10^-6 M; for inhibition at 0.1 µM: 10^-7 M; for inhibition at 0.01 µM: 10^-8 M
# Description: Test 2: Test on the inhibition of IL-4 production
# as §3, with “5×10^5” for “1×10^6”, “50” for “100”, “(BIO SOURCE,” for “(R&D SYSTEMS,”
Structure (SMILES),inhibition at 100 mg/kg [1] [%],inhibition at 100 mg/kg [2] [%],inhibition at 100 mg/kg [3] [%],inhibition at 100 mg/kg [4] [%],inhibition at 1 µM [5] [%],inhibition at 10 µM [6] [%],inhibition at 1 µM [6] [%],inhibition at 0.1 µM [6] [%],inhibition at 0.01 µM [6] [%],effects on the production of IgM ([2]; in words),effects on the production of IgG2a ([3]; in words),effects on the production of IgG1 ([4]; in words),inhibition at 10 µM [7] [%],inhibition at 1 µM [7] [%],inhibition at 0.1 µM [7] [%],inhibition at 0.01 µM [7] [%]
"COc1cnc(/C=C/C(=O)c2ccccc2)cc1OC [Ex. 1, 4,5-dimethoxy-2-(3-oxo-3-phenyl-1-propenyl)pyridine]",42,-8,4.6,1.6,95.3,97.5,87.9,80.3,59.9,,,,,,,
"CCCCCC(=O)/C=C/c1cc(OCCCCCC(=O)OC)c(OC)cn1 [Ex. 15, Methyl 6-[5-methoxy-2-(3-oxo-1-octenyl)-4-pyridyloxy]hexanoate]",23.5,-5.4,4.6,9.9,79.2,76.8,58.9,55.9,49.1,,,,,,,
"COc1cnc(/C=C/C(=O)c2ccccc2)cc1O [Ex. 19, 4-hydroxy-5-methoxy-2-(3-oxo-3-phenyl-1-propenyl)-pyridine]",30.6,1.2,0.9,8,94.8,106,98.1,95.1,83.8,,,,,,,
"O=C(/C=C/c1cc(O)c(O)cn1)c1ccccc1 [Ex. 20, 4,5-Dihydroxy-2-(3-oxo-3-phenyl-1-propenyl)pyridine]",23.7,-6.2,1.3,7.4,92.8,97.9,96.4,90.6,84,,,,,,,
"CCOC(=O)CCCOc1cc(/C=C/C(=O)c2ccccc2)ncc1OC [Ex. 44, Ethyl 4-[5-methyoxy-2-(3-oxo-3-phenyl-1-propenyl)-4-pyridyloxy]butanoate]",26.7,-4.2,-2.2,8,90.6,89.1,86.1,56.2,46.5,,,,,,,
"CCOC(=O)CCCCCOc1cc(/C=C/C(=O)C2CCCCC2)ncc1OC [Ex. 77, Ethyl 6-[2-(3-cyclohexyl-3-oxo-1-propenyl)-5-methoxy-4-pyridyloxy]hexanoatehydrochloride]",55.8,1.2,-3.9,-6.3,82,,,,,No effects were observed,No effects were observed,No effects were observed,68.6,66,65,64.5
"CCOC(=O)CCCOc1cc(/C=C/C(=O)c2c(OC)cccc2OC)ncc1OC [Ex. 86, Ethyl 4-[5-methoxy-2-(3-(2,6-dimethoxyphenyl)-3-oxo-1-propenyl)-4-pyridyloxy]butanoate hydrochloride]",35.9,-2.7,6.2,-1.1,71.9,,,,,,,,94.6,80.1,77.6,73.6
"CCOC(=O)CCCOc1cc(/C=C/C(=O)c2cc(OC)ccc2OC)ncc1OC [Ex. 87, Ethyl 4-[5-methoxy-2-(3-(2,5-dimethoxyphenyl)-3-oxo-1-propenyl)-4-pyridyloxy]butanoate hydrochloride]",30.5,-0.1,-8.1,-3.4,90.2,,,,,,,,78.3,73.4,72.2,69.3
"CCOC(=O)CCCCCOc1cc(/C=C/C(=O)c2cc(OC)ccc2OC)ncc1OC [Ex. 88, Ethyl 6-[5-methoxy-2-(3-(2,5-dimethoxyphenyl)-3-oxo-1-propenyl)-4-pyridyloxy]hexanoate hydrochloride]",22.7,-4.2,8.6,-6.9,61.6,,,,,,,,74.2,74.4,71.7,68
"CCOC(=O)CCCCCOc1cc(/C=C/C(=O)c2ccc(OC)c(OC)c2)ncc1OC [Ex. 90, Ethyl 6-[5-methoxy-2-(3-(3,4-dimethoxyphenyl)-3-oxo-1-propenyl)-4-pyridyloxy]hexanoate hydrochloride]",21.5,-10.3,7,2.7,75.6,,,,,,,,25.3,26.4,28.6,43.2
"CCOC(=O)CCCCCCCCCCCOc1cc(/C=C/C(=O)c2ccccc2OC)ncc1OC [Ex. 97, Ethyl 12-[5-methoxy-2-(3-(2-methoxyphenyl)-3-oxo-1-propenyl)-4-pyridyloxy]dodecanoate hydrochloride]",30.5,1.9,-9.5,5.6,93.9,,,,,,,,,,,
COC(=O)c1ccc(COc2cc(/C=C/C(=O)c3ccccc3OC)ncc2OC)cc1 [Ex. 99],34.8,8.5,2.7,6.1,80.3,,,,,,,,,,,
"CCOC(=O)CCCCCOc1cc(/C=C/C(=O)c2ccsc2)ncc1OC [Ex. 100, Ethyl 6-[5-methoxy-2-(3-oxo-3-(3-thienyl)-1-propenyl)-4-pyridyloxy]hexanoate hyd rochloride]",23.9,-9,-5.1,-4,82.6,,,,,,,,,,,
